Assay [1] has as its system BaF3. The experiment in a line: Antiproliferative activity against mouse BaF3 cells harbouring CCDC6-RET G810C mutant assessed as inhibition of cell proliferation incubated for 72 hrs by CCK-8 assay. It counts as functional, cell-based. Conditions: BaF3, 72 h. A general note: Formazan colour is commonly taken as a measure of viable cells.
For assay [2], the system named is BaF3. The assay can be described thus: Antiproliferative activity against mouse BaF3 cells harbouring CCDC6-RET assessed as inhibition of cell proliferation incubated for 72 hrs by CCK-8 assay. Conditions: BaF3, 72 h. It counts as functional, cell-based.
Assay [3] concerns BaF3. The experiment in a line: Antiproliferative activity against mouse BaF3 cells harbouring CCDC6-RET V804M mutant assessed as inhibition of cell proliferation incubated for 72 hrs by CCK-8 assay. The class given is functional, cell-based. Conditions: BaF3, 72 h.
The test system of assay [4] is BaF3. The experiment in a line: Antiproliferative activity against mouse BaF3 cells harbouring CCDC6-RET G810R mutant assessed as inhibition of cell proliferation incubated for 72 hrs by CCK-8 assay. It counts as functional, cell-based. Conditions: BaF3, 72 h.
Assay [5] deals with BaF3. The assay can be described thus: Antiproliferative activity against mouse BaF3 cells harbouring CCDC6-RET.
For assay [6], the system named is BaF3. The assay can be described thus: Antiproliferative activity against mouse BaF3 cells harbouring CCDC6-RET G810R mutant. It counts as functional, cell-based.
For assay [7], the system named is BaF3. The assay can be described thus: Antiproliferative activity against mouse BaF3 cells harbouring CCDC6-RET G810C mutant. It counts as functional, cell-based.
The test system of assay [8] is BaF3. The experiment in a line: Antiproliferative activity against mouse BaF3 cells harbouring CCDC6-RET V804M mutant. The class given is functional, cell-based.
The target of assay [9] is Proto-oncogene tyrosine-protein kinase receptor Ret (Homo sapiens, UniProt P07949, V804M). The experiment in a line: Inhibition of RET V804M mutant (unknown origin).
Proto-oncogene tyrosine-protein kinase receptor Ret (Homo sapiens, UniProt P07949, V804M), sequence (P07949 29-1114 V804M limits assumed): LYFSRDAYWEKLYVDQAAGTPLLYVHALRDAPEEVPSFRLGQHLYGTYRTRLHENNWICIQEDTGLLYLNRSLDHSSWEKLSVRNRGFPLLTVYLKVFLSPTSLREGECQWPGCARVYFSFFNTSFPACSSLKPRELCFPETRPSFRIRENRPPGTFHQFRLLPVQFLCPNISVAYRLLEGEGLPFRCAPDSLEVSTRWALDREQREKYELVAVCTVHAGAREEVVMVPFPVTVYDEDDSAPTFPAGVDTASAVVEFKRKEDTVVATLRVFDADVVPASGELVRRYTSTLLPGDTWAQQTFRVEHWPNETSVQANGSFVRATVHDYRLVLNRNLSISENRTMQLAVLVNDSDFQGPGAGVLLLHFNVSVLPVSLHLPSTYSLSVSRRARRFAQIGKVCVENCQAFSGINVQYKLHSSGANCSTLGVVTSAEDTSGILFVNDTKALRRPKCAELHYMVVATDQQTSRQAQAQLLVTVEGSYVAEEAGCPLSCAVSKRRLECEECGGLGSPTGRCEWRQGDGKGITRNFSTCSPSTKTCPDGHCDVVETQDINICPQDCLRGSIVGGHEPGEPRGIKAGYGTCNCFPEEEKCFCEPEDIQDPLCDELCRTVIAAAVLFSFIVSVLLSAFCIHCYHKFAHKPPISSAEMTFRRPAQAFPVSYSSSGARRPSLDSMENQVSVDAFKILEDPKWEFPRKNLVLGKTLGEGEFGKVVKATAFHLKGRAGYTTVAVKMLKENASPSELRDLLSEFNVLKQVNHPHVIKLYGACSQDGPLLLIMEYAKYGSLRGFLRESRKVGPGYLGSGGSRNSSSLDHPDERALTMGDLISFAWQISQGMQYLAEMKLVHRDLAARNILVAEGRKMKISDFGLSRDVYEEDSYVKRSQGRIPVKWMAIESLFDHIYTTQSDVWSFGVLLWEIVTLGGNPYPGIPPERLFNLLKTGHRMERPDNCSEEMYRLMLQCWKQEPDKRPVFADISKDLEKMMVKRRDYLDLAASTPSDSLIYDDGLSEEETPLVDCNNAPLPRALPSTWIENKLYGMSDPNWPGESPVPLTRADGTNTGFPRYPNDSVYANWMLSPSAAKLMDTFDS
The target in assay [10] is Kinesin-1 heavy chain/ Tyrosine-protein kinase receptor RET (Homo sapiens, UniProt P07949). The assay can be described thus: Inhibition of wild type KIF5B-RET (unknown origin). The class given is protein assay.
Kinesin-1 heavy chain/ Tyrosine-protein kinase receptor RET, sequence (P07949 whole entry): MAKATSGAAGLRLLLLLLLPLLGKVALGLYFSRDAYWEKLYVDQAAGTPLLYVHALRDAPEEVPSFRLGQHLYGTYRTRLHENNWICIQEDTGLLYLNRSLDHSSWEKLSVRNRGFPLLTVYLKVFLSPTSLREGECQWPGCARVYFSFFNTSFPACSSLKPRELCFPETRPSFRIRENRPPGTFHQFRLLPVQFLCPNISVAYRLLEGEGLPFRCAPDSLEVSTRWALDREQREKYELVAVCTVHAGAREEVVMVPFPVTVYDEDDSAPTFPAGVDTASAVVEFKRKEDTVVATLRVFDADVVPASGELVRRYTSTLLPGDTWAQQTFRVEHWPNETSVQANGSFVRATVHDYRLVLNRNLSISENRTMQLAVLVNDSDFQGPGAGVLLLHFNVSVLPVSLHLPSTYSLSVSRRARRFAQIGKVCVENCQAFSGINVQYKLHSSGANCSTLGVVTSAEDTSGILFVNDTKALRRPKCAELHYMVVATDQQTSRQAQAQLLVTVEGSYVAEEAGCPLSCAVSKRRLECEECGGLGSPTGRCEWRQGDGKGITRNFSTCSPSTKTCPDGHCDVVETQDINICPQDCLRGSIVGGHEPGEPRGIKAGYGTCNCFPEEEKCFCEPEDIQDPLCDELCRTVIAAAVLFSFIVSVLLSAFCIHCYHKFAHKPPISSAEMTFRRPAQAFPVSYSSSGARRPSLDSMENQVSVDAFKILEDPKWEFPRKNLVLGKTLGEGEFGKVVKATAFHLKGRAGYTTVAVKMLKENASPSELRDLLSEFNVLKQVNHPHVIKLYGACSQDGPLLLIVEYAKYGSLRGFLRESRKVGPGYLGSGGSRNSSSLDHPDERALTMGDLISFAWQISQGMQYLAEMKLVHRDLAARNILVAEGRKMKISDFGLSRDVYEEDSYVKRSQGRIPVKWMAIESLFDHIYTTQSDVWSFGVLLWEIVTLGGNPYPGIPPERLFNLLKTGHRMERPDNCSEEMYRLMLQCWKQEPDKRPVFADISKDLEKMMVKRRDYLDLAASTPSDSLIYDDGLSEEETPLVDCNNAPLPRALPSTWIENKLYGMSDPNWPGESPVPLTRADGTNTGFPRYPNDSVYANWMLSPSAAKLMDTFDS
Kinesin-1 heavy chain/ Tyrosine-protein kinase receptor RET, sequence (P33176 whole entry, further chain): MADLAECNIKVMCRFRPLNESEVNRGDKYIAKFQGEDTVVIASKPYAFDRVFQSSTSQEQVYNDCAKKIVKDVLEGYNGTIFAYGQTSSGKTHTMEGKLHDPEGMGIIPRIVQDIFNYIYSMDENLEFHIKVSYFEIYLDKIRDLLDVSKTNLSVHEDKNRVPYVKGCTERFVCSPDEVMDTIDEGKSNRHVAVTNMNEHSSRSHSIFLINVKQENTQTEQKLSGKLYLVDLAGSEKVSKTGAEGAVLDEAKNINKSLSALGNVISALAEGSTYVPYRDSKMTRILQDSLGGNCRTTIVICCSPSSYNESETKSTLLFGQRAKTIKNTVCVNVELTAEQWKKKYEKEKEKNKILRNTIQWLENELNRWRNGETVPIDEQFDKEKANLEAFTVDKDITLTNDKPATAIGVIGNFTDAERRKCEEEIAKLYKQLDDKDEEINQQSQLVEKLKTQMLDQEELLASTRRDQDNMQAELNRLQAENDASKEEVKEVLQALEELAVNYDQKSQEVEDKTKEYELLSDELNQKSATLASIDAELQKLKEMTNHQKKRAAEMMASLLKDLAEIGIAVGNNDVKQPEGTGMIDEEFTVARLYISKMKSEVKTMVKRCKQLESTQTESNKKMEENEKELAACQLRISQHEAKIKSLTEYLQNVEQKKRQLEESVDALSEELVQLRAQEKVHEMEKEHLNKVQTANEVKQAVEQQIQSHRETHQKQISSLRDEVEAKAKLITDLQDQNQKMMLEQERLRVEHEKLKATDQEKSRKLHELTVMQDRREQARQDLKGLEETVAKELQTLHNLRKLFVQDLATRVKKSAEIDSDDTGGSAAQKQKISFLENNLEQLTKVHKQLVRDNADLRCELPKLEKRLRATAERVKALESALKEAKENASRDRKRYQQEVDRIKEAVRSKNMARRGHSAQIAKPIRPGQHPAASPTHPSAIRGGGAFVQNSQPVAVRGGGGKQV
The target in assay [11] is Proto-oncogene tyrosine-protein kinase receptor Ret (Homo sapiens, UniProt P07949, G810R). The experiment in a line: Inhibition of RET G810R mutant (unknown origin).
Proto-oncogene tyrosine-protein kinase receptor Ret (Homo sapiens, UniProt P07949, G810R), sequence (P07949 29-1114 G810R limits assumed): as the sequence (P07949 29-1114 V804M limits assumed) above, with M776V, G782R counted along it
In assay [12] the test system is BaF3. The assay can be described thus: Antiproliferative activity against mouse BaF3 cells harbouring KIF5B-RET assessed as inhibition of cell proliferation. The class given is functional, cell-based.
Assay [13] concerns BaF3. The assay can be described thus: Antiproliferative activity against mouse BaF3 cells harbouring KIF5B-RET G810R mutant assessed as inhibition of cell proliferation. The class given is functional, cell-based.
In assay [14] the test system is BaF3. The experiment in a line: Antiproliferative activity against mouse BaF3 cells harbouring KIF5B-RET G810C mutant assessed as inhibition of cell proliferation. It counts as functional, cell-based.
The subject of assay [15] is BaF3. The experiment in a line: Antiproliferative activity against mouse BaF3 cells harbouring CCDC6-RET V804M mutant assessed as inhibition of cell proliferation. The class given is functional, cell-based.

IC50 data for 24 compounds are collected here from ChEMBL document CHEMBL6103575, “Design, synthesis and evaluation of (E)-1-(4-(2-(1H-pyrazol-5-yl)vinyl)phenyl) derivatives as next generation selective RET inhibitors overcoming RET solvent front mutations (G810C/R)” (Eur J Med Chem, 2025).

Broadly, the IC50 is the concentration that inhibits the measured activity by half. In the case of `CC(C)(c1cc(NC(=O)Nc2ccc(/C=C/c3[nH]ncc3-c3cncc(F)c3)cc2)no1)C(F)(F)F`, the IC50 amounted to 0.042 µM in the assay on BaF3 [1], 0.147 µM in the assay with BaF3 [2], 0.594 µM in the assay on BaF3 [3] and 0.143 µM in the assay with BaF3 [4].
Regarding `CO[C@]1(C(=O)N[C@@H](C)c2ccc(-n3cc(F)cn3)nc2)CC[C@H](c2nc(C)cc(Nc3cc(C)[nH]n3)n2)CC1` [PRALSETINIB], the IC50 in the assay with BaF3 [5] was found to be 0.005 µM; in the assay with BaF3 [6] it was 0.358 µM; in the assay on BaF3 [7], 0.114 µM; in the assay with BaF3 [1] it was 0.104 µM; in the assay with BaF3 [2] it was 0.0039 µM; in the assay on BaF3 [3] it was 0.0049 µM. The IC50 came out at 0.0041 µM in the assay on BaF3 [8] and 0.32 µM in the assay on BaF3 [4].
Consider `COc1cncc(-c2cn[nH]c2/C=C/c2ccc(NC(=O)Nc3cc(C(C)(C)C(F)(F)F)on3)c(C)c2)c1`, for which the IC50 in the assay on BaF3 [1] was found to be 0.0264 µM; with BaF3 [2], 0.0131 µM; in the assay with BaF3 [3], 0.803 µM; in the assay with BaF3 [4] it was 0.0294 µM.
The corresponding values for `COc1cncc(-c2cn[nH]c2/C=C/c2ccc(NC(=O)Nc3cc(C(C)(C)C(F)(F)F)on3)cc2OC)c1` are 0.7 µM, 0.133 µM, 1.05 µM and 0.443 µM.
The corresponding values for `COc1cncc(-c2cn[nH]c2/C=C/c2ccc(NC(=O)Nc3cc(C(C)(C)C(F)(F)F)on3)cc2Cl)c1` are 0.309 µM, 0.108 µM, 0.421 µM and 0.246 µM.
In the case of `CN1CCN(Cc2ccc(NC(=O)c3cncc(C#Cc4cnc(N)c5ncccc45)c3)cc2C(F)(F)F)CC1`, the IC50 in assay [9] is 0.0288 µM; in assay [10] it was 0.00389 µM; in [11] it was 0.0288 µM.
As for `COc1cc(-c2cn[nH]c2/C=C/c2ccc(NC(=O)Nc3cc(C(C)(C)C(F)(F)F)on3)cc2)ccn1`, the IC50 in the assay with BaF3 [1] was 0.121 µM; with BaF3 [2] it was 0.0854 µM; with BaF3 [3], 1.22 µM; in the assay on BaF3 [4], 0.208 µM.
Taken in the same sequence, the figures for `COc1cncc(-c2cn[nH]c2/C=C/c2ccc(NC(=O)Nc3cc(C(C)(C)C(F)(F)F)on3)cc2C)c1` were 0.499 µM, 0.271 µM, 0.632 µM and 0.471 µM.
For `C[C@H]1CNC(=O)c2cnn3cc4c(nc23)N(Cc2cc(F)cnc2O1)[C@@H]1CCC[C@@H]1O4` [ENBEZOTINIB], the IC50 in the assay on BaF3 [12], with BaF3 [13] and in the assay with BaF3 [14] was 0.001 µM each time.
For `COC(=O)c1cncc(-c2cn[nH]c2/C=C/c2ccc(NC(=O)Nc3cc(C(C)(C)C(F)(F)F)on3)cc2)c1`, the IC50 in the assay with BaF3 [1] was determined as 0.377 µM; in the assay on BaF3 [2], 0.0894 µM; in the assay on BaF3 [3], 1.02 µM; in the assay on BaF3 [4], 0.428 µM.
The corresponding values for `CC(C)(c1cc(NC(=O)Nc2ccc(/C=C/c3[nH]ncc3-c3cncc(C#N)c3)cc2)no1)C(F)(F)F` are 0.205 µM, 0.175 µM, 0.844 µM and 0.278 µM.
The corresponding values for `COc1ccc(-c2c[nH]nc2-c2ccc(NC(=O)Nc3cc(C(C)(C)C(F)(F)F)on3)cc2)cn1` are 0.363 µM, 0.435 µM, 0.231 µM and 0.658 µM.
The corresponding values for `COc1cncc(-c2cnn(C)c2/C=C/c2ccc(NC(=O)Nc3cc(C(C)(C)C(F)(F)F)on3)cc2)c1` are 0.641 µM, 0.223 µM, 1.52 µM and 0.836 µM.
Regarding `COc1cncc(-c2cn[nH]c2/C=C/c2cccc(NC(=O)Nc3cc(C(C)(C)C(F)(F)F)on3)c2)c1`, the IC50 is 0.777 µM in the assay with BaF3 [1], 1.06 µM in the assay on BaF3 [2], 1.81 µM with BaF3 [3] and 2.2 µM in the assay with BaF3 [4].
The corresponding values for `COc1cncc(-c2cn[nH]c2/C=C/c2ccc(NC(=O)Nc3cc(C(C)(C)C(F)(F)F)on3)c(OC)c2)c1` are 0.404 µM, 0.21 µM, 0.754 µM and 0.352 µM.
For the compound `COc1ccc(CN2[C@@H]3C[C@H]2CN(c2ccc(-c4cc(OCC(C)(C)O)cn5ncc(C#N)c45)cn2)C3)cn1`, in the assay with BaF3 [15], the IC50 is 0.026 µM.
In the case of `CNC(=O)c1cncc(-c2cn[nH]c2/C=C/c2ccc(NC(=O)Nc3cc(C(C)(C)C(F)(F)F)on3)cc2)c1`, the IC50 in the assay on BaF3 [1] was determined as 0.737 µM; with BaF3 [2] it was 0.222 µM; in the assay with BaF3 [3], 3.07 µM; in the assay on BaF3 [4] it was 1.21 µM.
The corresponding values for `COc1cncc(-c2cn[nH]c2/C=C/c2ccc(NC(=O)Nc3cc(C(C)(C)C(F)(F)F)on3)cc2F)c1` are 0.173 µM, 0.127 µM, 0.536 µM and 0.179 µM.
Taken in the same sequence, the figures for `COc1cncc(-c2cn(C)nc2/C=C/c2ccc(NC(=O)Nc3cc(C(C)(C)C(F)(F)F)on3)cc2)c1` were 0.421 µM, 0.126 µM, 0.719 µM and 1.13 µM.
Taken in the same sequence, the figures for `COc1cncc(-c2cn[nH]c2/C=C/c2ccc(NC(=O)Nc3cc(C(C)(C)C(F)(F)F)on3)cc2)c1` were 0.046 µM, 0.046 µM, 0.554 µM and 0.133 µM.
For `COc1cncc(-c2c[nH]nc2/C=C\c2ccc(NC(=O)Nc3cc(C(C)(C)C(F)(F)F)on3)cc2)c1`, the IC50 with BaF3 [1] is 0.694 µM; in the assay with BaF3 [2], 0.406 µM; with BaF3 [3], 1.79 µM; in the assay on BaF3 [4] it was 0.812 µM.
With `COc1cncc(-c2cn[nH]c2/C=C/c2ccc(NC(=O)Nc3cc(C(C)(C)C(F)(F)F)on3)c(F)c2)c1`, the IC50 in the assay with BaF3 [1] was 0.0455 µM; in the assay with BaF3 [2], 0.0123 µM; in the assay with BaF3 [3], 0.564 µM; in the assay on BaF3 [4], 0.022 µM.
The corresponding values for `COc1ccc(-c2cn[nH]c2CCc2ccc(NC(=O)Nc3cc(C(C)(C)C(F)(F)F)on3)cc2)cn1` are 0.718 µM, 0.79 µM, 3.61 µM and 1.03 µM.
Taken in the same sequence, the figures for `COc1ccc(-c2cn[nH]c2/C=C/c2ccc(NC(=O)Nc3cc(C(C)(C)C(F)(F)F)on3)cc2)cn1` were 0.117 µM, 0.0985 µM, 2.02 µM and 0.301 µM.
